Results reported in patent US20250230155A1 (Vanderbilt University, priority 2021, published 2025).

Target: T1, human mAChR M4 (Homo sapiens, UniProt P08173)
T1 construct: expressed in transfected cells
T1 sequence (P08173 1-479): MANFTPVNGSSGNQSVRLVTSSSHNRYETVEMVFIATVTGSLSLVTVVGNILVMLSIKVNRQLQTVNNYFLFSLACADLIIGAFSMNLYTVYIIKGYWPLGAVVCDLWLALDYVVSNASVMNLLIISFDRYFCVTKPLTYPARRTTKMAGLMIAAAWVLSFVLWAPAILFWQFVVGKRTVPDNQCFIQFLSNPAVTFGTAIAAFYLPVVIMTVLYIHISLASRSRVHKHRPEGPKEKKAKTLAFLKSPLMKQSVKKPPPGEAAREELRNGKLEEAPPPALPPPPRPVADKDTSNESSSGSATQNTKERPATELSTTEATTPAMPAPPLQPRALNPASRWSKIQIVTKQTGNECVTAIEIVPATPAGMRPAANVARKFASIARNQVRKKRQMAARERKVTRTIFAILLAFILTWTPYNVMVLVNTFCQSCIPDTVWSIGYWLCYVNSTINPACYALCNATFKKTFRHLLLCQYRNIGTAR
Experiment: mAChR M4 cell-based functional assay (calcium mobilization, CHO-K1 hM4-Gqi5 cells)
Settings: for Emax at 30 µM: CHO-K1, % ACh maximum at 30 μM, human M4; for EC50: positive allosteric modulator activity, increase in the EC20 acetylcholine response, CHO-K1 hM4-Gqi5 cells, read-out: Human M4 EC50
Procedure, shortened: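 Fluorescent calcium read-out (Fluo-4 AM, FDSS, 1 Hz) in hM4-Gqi5 CHO-K1 cells, 11-point 1:3 compound series. Agonism scored on compound addition, PAM activity as increase of the 144 s EC20 acetylcholine response, antagonism as decrease of the 230 s EC80 response; four-parameter logistic fits give EC50 and Emax.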

Structure (SMILES)	Emax at 30 µM [%]	EC50 [nM]	Emax (CHO-K1) [%]
COC(=O)c1cnc(N2CCc3ncc(Br)cc3C2)c(C)c1 [compound 133, methyl 6-(3-bromo-7,8-dihydro-5H-1,6-naphthyridin-6-yl)-5-methyl-pyridine-3-carboxylate]	–	158	100
Cc1cc(C#N)cnc1N1CCc2ncc(N3CCN(C)CC3=O)cc2C1 [Example 420, 5-methyl-6-(3-(4-methyl-2-oxopiperazin-1-yl)-7,8-dihydro-1,6-naphthyridin-6(5H)-yl)nicotinonitrile]	43	≥ 10000	–
Cc1c(C#N)nnc(N2CCc3ncc(C(C)(O)C(F)(F)F)cc3C2)c1C (stereo not drawn) [Example 425, 4,5-dimethyl-6-(3-(1,1,1-trifluoro-2-hydroxypropan-2-yl)-7,8-dihydro-1,6-naphthyridin-6(5H)-yl)pyridazine-3-carbonitrile]	61	621	–
Cc1cc(C#N)nnc1N1CCc2ncc(N3CC(C)Cn4nccc43)cc2C1 (stereo not drawn) [Example 381, 5-methyl-6-(3-(6-methyl-6,7-dihydropyrazolo[1,5-a]pyrimidin-4(5H)-yl)-7,8-dihydro-1,6-naphthyridin-6(5H)-yl)pyridazine-3-carbonitrile]	98	384	–
Cc1cc(C#N)nnc1N1CCc2ncc(-c3ccc(C4CC4)nc3)cc2C1 [Example 321, 6-(3-(6-cyclopropylpyridin-3-yl)-7,8-dihydro-1,6-naphthyridin-6(5H)-yl)-5-methylpyridazine-3-carbonitrile]	73	356	–
Cc1cc(C(=O)N2CC(C)(F)C2)nnc1N1CCc2ncc(Nc3ccnn3C)cc2C1 [Example 560, (3-fluoro-3-methylazetidin-1-yl)(5-methyl-6-(3-((1-methyl-1H-pyrazol-5-yl)amino)-7,8-dihydro-1,6-naphthyridin-6(5H)-yl)pyridazin-3-yl)methanone]	75	64	–
[2H]C1([2H])Cc2ncc(Nc3cc(C)ncc3F)cc2C([2H])([2H])N1c1ncc(C#N)cc1C [Example 601, 6-(3-((5-fluoro-2-methylpyridin-4-yl)amino)-7,8-dihydro-1,6-naphthyridin-6(5H)-yl-5,5,7,7-d4)-5-methylnicotinonitrile]	95	7	–

More lines, main results first:

Emax at 30 µM [%]	EC50 [nM]	Structure (SMILES)	Emax (CHO-K1) [%]
80	716	Cc1nc(Cl)c(C)c(N2CCc3ncc(Nc4c(F)cccc4F)cc3C2)n1 [compound 89, 6-(6-chloro-2,5-dimethyl-pyrimidin-4-yl)-N-(2,6-difluorophenyl)-7,8-dihydro-5H-1,6-naphthyridin-3-amine]	–
88	300	Cc1c(Cl)nc(C(F)(F)F)nc1N1CCc2ncc(N3CCCn4nccc43)cc2C1 [compound 248, 6-(6-chloro-5-methyl-2-(trifluoromethyl)pyrimidin-4-yl)-3-(6,7-dihydropyrazolo[1,5-a]pyrimidin-4(5H)-yl)-5,6,7,8-tetrahydro-1,6-naphthyridine]	–
91	764	Cc1c(Cl)nc(C(F)(F)F)nc1N1CCc2ncc(Nc3ccnn3C)cc2C1 [compound 247, 6-(6-chloro-5-methyl-2-(trifluoromethyl)pyrimidin-4-yl)-N-(1-methyl-1H-pyrazol-5-yl)-5,6,7,8-tetrahydro-1,6-naphthyridin-3-amine]	–
68	6910	Cc1cc(C(=O)NCc2ccccn2)cnc1N1CCc2ncccc2C1 [compound 59, 6-(7,8-dihydro-5H-1,6-naphthyridin-6-yl)-5-methyl-N-(2-pyridylmethyl)pyridine-3-carboxamide]	–
58	911	Cc1nc(Cl)c(C)c(N2Cc3cc(Nc4ccnn4C)cnc3C(C)(C)C2)n1 [compound 239, 6-(6-chloro-2,5-dimethylpyrimidin-4-yl)-8,8-dimethyl-N-(1-methyl-1H-pyrazol-5-yl)-5,6,7,8-tetrahydro-1,6-naphthyridin-3-amine]	–
